Among the test systems are HOP-62; OVCAR-3; SNB-19; HCT-116; NCI-H522; BT-549; SNB-75; NCI-H23; OVCAR-5; TK-10; HOP-92; U-251; OVCAR-4; UO-31; UACC-257; RPMI-8226; UACC-62; LXFL 529; HCC 2998; SK-MEL-28.
Test in all cases: inhibition of tumour cell growth, NCI panel, 48 h

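Tested at 5 concentrations; 48 h exposure; 96-well plates; endpoints linearly interpolated, else capped at highest concentration. At the GI50, growth is halved.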 Activity calls are given as the source filed them. Cut-off read from the data, not from the text of the source: active = GI50 up to about 1.1 µM and inactive = higher.

Consider `O=C(NC(=O)c1ccccc1[N+](=O)[O-])Nc1ccc(Oc2ncc(Cl)cn2)c([N+](=O)[O-])c1`, for which the GI50 is 0.303 µM (active) with HOP-62; 0.0644 µM (active) in the experiment with OVCAR-3; 2.02 µM (inactive) in the experiment on SNB-19; 0.175 µM (active) in the experiment on HCT-116; 0.115 µM (active) in the experiment with NCI-H522; 31.5 µM (inactive) in the experiment on BT-549. The GI50 with SNB-75 was 0.0767 µM (active); in the experiment with NCI-H23 it was 0.411 µM (active); in the experiment on OVCAR-5 it was 0.875 µM (active); with TK-10, > 100 µM (inactive); in the experiment on HOP-92 it was 0.27 µM (active); in the experiment on U-251 it was 0.255 µM (active). For the same molecule, the GI50 in the experiment on OVCAR-4 was 21.9 µM (inactive); with UO-31, 0.573 µM (active); in the experiment with UACC-257, 0.431 µM (active); in the experiment on RPMI-8226, 0.187 µM (active); in the experiment on UACC-62 it was 0.0834 µM (active); in the experiment on LXFL 529, 0.217 µM (active). In addition, the GI50 in the experiment with HCC 2998 is 0.426 µM (active).
Consider `O=c1[nH]c2ccccc2nc1CBr`, for which the GI50 in the experiment with HOP-62 is 21.3 µM (inactive); in the experiment on OVCAR-3, 1.57 µM (inactive); with SNB-19 it was 23.5 µM (inactive); in the experiment with HCT-116 it was 8.39 µM (inactive); in the experiment with NCI-H522, 0.638 µM (active); in the experiment with BT-549, 9.27 µM (inactive). In addition, the GI50 in the experiment on SNB-75 is 12.8 µM (inactive); with SK-MEL-28, 12.1 µM (inactive); with NCI-H23, 14.6 µM (inactive); in the experiment with OVCAR-5, 17.7 µM (inactive); with TK-10, 13.8 µM (inactive); in the experiment with HOP-92, 3.39 µM (inactive). Besides, the GI50 in the experiment with U-251 is 9.98 µM (inactive); with OVCAR-4 it was 4.62 µM (inactive); in the experiment on UO-31 it was 3.87 µM (inactive); with UACC-257, 13.2 µM (inactive); in the experiment with RPMI-8226, 2.06 µM (inactive); in the experiment with UACC-62, 8.11 µM (inactive). For the same molecule, the GI50 was 1.12 µM (active) with LXFL 529 and 20.6 µM (inactive) in the experiment on HCC 2998.
`CCC1(OC(C)=O)C(=O)OCc2c1cc1n(c2=O)Cc2cc3ccccc3nc2-1` (stereo unspecified): the GI50 with HOP-62 is 0.316 µM (active); with OVCAR-3, 10.7 µM (inactive); in the experiment with SNB-19, 0.962 µM (active); in the experiment with HCT-116, 2.03 µM (inactive); in the experiment on NCI-H522, 1.19 µM (inactive); in the experiment with SNB-75 it was 1.48 µM (inactive). The GI50 was 14 µM (inactive) with SK-MEL-28; 0.966 µM (active) in the experiment with NCI-H23; 2.37 µM (inactive) in the experiment on OVCAR-5; > 100 µM (inactive) in the experiment with TK-10; 24.8 µM (inactive) in the experiment with HOP-92; 0.289 µM (active) in the experiment on U-251. In addition, the GI50 in the experiment with OVCAR-4 is 41.4 µM (inactive); with UO-31 it was 1 µM (active); in the experiment on UACC-257, 4.45 µM (inactive); in the experiment with RPMI-8226, 4.2 µM (inactive); in the experiment on UACC-62, 0.251 µM (active); in the experiment on LXFL 529, 15 µM (inactive). In addition, in the experiment with HCC 2998, the GI50 was 4.42 µM (inactive).
On to `N/N=C(\c1nc2ccc(Cl)cc2nc1O)C(O)c1ccc(Cl)c(Cl)c1` (stereo unspecified), for which the GI50 in the experiment on HOP-62 was > 100 µM (inactive); in the experiment on OVCAR-3 it was > 100 µM (inactive); with SNB-19, > 100 µM (inactive); with HCT-116 it was 48.1 µM (inactive); in the experiment on NCI-H522 it was > 100 µM (inactive); with SNB-75 it was 31 µM (inactive). The GI50 in the experiment with SK-MEL-28, in the experiment on NCI-H23, in the experiment with OVCAR-5, with TK-10, with HOP-92 and with U-251 was > 100 µM (inactive) throughout. In addition, the GI50 with OVCAR-4 was 29.1 µM (inactive); in the experiment with UO-31 it was > 100 µM (inactive); with UACC-257, > 100 µM (inactive); in the experiment on RPMI-8226 it was > 100 µM (inactive); with UACC-62 it was > 100 µM (inactive); with LXFL 529, > 100 µM (inactive). Further, in the experiment on HCC 2998, the GI50 is > 100 µM (inactive).
In the case of `CC(=O)OC[C@@H](COC(=O)/C=C/c1ccc(O)cc1)OC1OC(CO)C(O)C(O)C1O` (stereo partly specified), the GI50 in the experiment with HOP-62, with OVCAR-3, with SNB-19, in the experiment with HCT-116, with NCI-H522 and in the experiment on SNB-75 was > 100 µM (inactive) each time. For the same molecule, the GI50 in the experiment with SK-MEL-28, in the experiment on NCI-H23, in the experiment with OVCAR-5, in the experiment on TK-10, in the experiment on HOP-92 and in the experiment with U-251 was > 100 µM (inactive) in each case. In addition, the GI50 in the experiment with OVCAR-4, with UO-31, with UACC-257, with RPMI-8226, with UACC-62 and in the experiment with LXFL 529 was > 100 µM (inactive) in each case. In addition, the GI50 with HCC 2998 is > 100 µM (inactive).
